The results in this text go back to publication PMC10141580, “Cyclic Dichalcogenides Extend the Reach of Bioreductive Prodrugs to Harness Thiol/Disulfide Oxidoreductases: Applications to seco-Duocarmycins Targeting the Thioredoxin System” (ACS Central Science, 2023).

Data set [1] relates to A549 cells. The data set can be described thus: Resazurin cytotoxicity assay, A549, 72 h. The conditions noted are these: read-out: IC50(nM): A549. Background: The colour change of resazurin is a common sign of viable cells or microbes.
Experimental: (§1) We used A549 lung cancer and HeLa cervical cancer cell lines for initial screening of the prodrugs.
Fi gure S9: Cell ular resazurin-based cytotoxi ci ty as s a y.
Dose -response curves were calculated from at least 27 incremental single concentrations over a range
of at least three log units. Individual experiments with annotated experiment numbers are shown for each prodrug
Data set [2] deals with HeLa-HRE cells. As to the kind of experiment: Resazurin cytotoxicity assay, HeLa-HRE, 48 h. The settings on record: for IC50(HeLa)/IC50(A549): ratio HeLa vs A549.
Experimental: as §1
HeLa-HRE cells were treated with prodrugs of the
Dose -response curves were calculated from at least 27 incremental single concentrations over a
range of at least three log units.
For data set [3], the system named is athymic nu/nu NMRI mice with BxPC-3 tumors. The data set can be described thus: BxPC-3-bearing tolerability study. Type of data set: in vivo, mouse. The conditions noted are these: twice weekly 3 mg/kg, five injections, BxPC-3-bearing NMRI mice. An excerpt: A larger study was run in 50 athymic nu/nu NMRI mice (10 animals per group) inoculated with BxPC-3 pancreatic cancer cells since the study had been intended as a therapeutic efficacy trial (see section 2.9). Similarly solubilized SS66C derivatives were now included. In this study, the tumor growth rates in all animals were much lower than in any previous or subsequent trials (Figure S16c), so we could only extract data about drug tolerability, not antitumor efficacy. Still, the study confirmed that the solubilized P-SS60-, Me-SS66C-, and P-SS66C- prodrugs of -CBI-TMI, and the corresponding carbamate hydrolysis control P-CC60-CBI-TMI, were tolerated with twice weekly injections at 3 mg/kg, over a course of five injections, in all animals, since no distinct differences of body weight or animal health were seen as compared to the vehicle control (Figure S16a).
a Body weights b Body weights
$ Absolute Tumour Volumes d Absolute Tumour Volumes
Irinotecan Irinotecan Irinotecan Irinotecan
(a,b) Bodyweights (means);
confidence interval). […] Dotted vertical lines indicate days

Setting [4] is: read-out: IC50(nM): HeLa, HeLa, 48 h.

Where two headings read alike, the source gives them in different places.

In the case of `COc1cc2cc(C(=O)N3C[C@@H](CCl)c4c3cc(OC(=O)N3CCN(C(=O)CCC(=O)N5CCN(C)CC5)[C@H]5CSSC[C@H]53)c3ccccc43)[nH]c2c(OC)c1OC` [P-SS66C-CBI-TMI], the IC50 – broadly, the concentration needed to halve the response being measured – in data set [1] (Homo sapiens) came to 12 nM; in data set [2] (Homo sapiens, HeLa, 48 h, read-out: IC50(nM): HeLa), 200 nM. The “IC50(HeLa)/IC50(A549)” value in data set [2] is given as 17. Also, the tolerability result in data set [3] is reported as “tolerated”.

For the molecule `COc1cc2cc(C(=O)N3CC(CCl)c4c3cc(OC(=O)N3CCN(C)C5CSSCC53)c3ccccc43)[nH]c2c(OC)c1OC` (mixture of isomers) [Me-SS66C-CBI-TMI], the IC50 in data set [1] was determined as 17 nM; in data set [2] (setting [4]) it was 220 nM. Also, in data set [3], the tolerability entry is given as “tolerated”.

For `COc1cc2cc(C(=O)N3C[C@@H](CCl)c4c3cc(OC(=O)N(CCC(=O)N3CCN(C)CC3)[C@H]3CCSSC3)c3ccccc43)[nH]c2c(OC)c1OC` [P-SS60-CBI-TMI], the IC50 in data set [1] came to 180 nM; in data set [2] (setting [4]), 420 nM. For the same molecule, the “IC50(HeLa)/IC50(A549)” value in data set [2] came out at 2.3. Further, the tolerability result in data set [3] was “tolerated”.

Regarding `COc1cc2cc(C(=O)N3C[C@@H](CCl)c4c3cc(OC(=O)N(CCC(=O)N3CCN(C)CC3)C3CCCCC3)c3ccccc43)[nH]c2c(OC)c1OC` [P-CC60-CBI-TMI], the IC50 in data set [1] is 1700 nM; in data set [2] (initial screening, A549 and HeLa cell lines), greater than 1000 nM; in data set [2] (setting [4]) it was 1250 nM. For the same molecule, the “IC50(HeLa)/IC50(A549)” value in data set [2] was 0.7. For the same molecule, in data set [3], the tolerability result is given as “tolerated”.

Take `COc1cc2cc(C(=O)N3CC(CCl)c4c3cc(OC(=O)N3CCN(C)C5CSSCC53)c3ccccc43)[nH]c2c(OC)c1OC` (mixture of isomers) [Me-SS66T-CBI-TMI]: the values for the IC50 in data set [1] and in data set [2] (setting [4]) were 5.9 nM and 59 nM, respectively. In data set [2], the “IC50(HeLa)/IC50(A549)” value came out at 10.
